In patent US20260078120A1, “SUBSTITUTED PYRIDOPYRIMIDINONES” (MIRATI THERAPEUTICS, INC., priority 2022, published 2026):
Read-outs that look alike come from different tables or passages of the source.

Legend:
[1] = tested on: SKBR3 (PI3Kα wild type) cells; assay: CellTiter-Glo 2.0 luminescent cell viability assay, 72 hours, SKBR3 cells; type: cell-based; settings: Homo sapiens, SK-BR-3, 72 h
How it was run: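 Viability measured via CTG luminescence following roughly 72 hours of compound exposure at 37° C. Dosing used a 10 um starting concentration diluted 1:4 over 10 points; percent-of-vehicle data fitted with a variable-slope four-parameter model for IC50.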

[2] = tested on: T47D (PI3Kα H1047R mutant) cells; assay: CellTiter-Glo 2.0 luminescent cell viability assay, 72 hours, T47D cells; type: cell-based; settings: Homo sapiens, T47D, 72 h
How it was run: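 Viability was measured by CellTiter-Glo 2.0 luminescence after approximately 72 h of compound exposure at 37° C. Plating was 1000 cells per well the day before dosing, with ten 1:4 dilutions from a 10 µM top concentration. Values as percent of vehicle were fitted by variable-slope log(inhibitor) regression to give IC50.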

[3] = SKBR3 (PI3Kα wild type) cells, CellTiter-Glo, approximately 72 hours, read-out: SKBR3 (WT) Viability IC50
[4] = T47D (PI3Kα H1047R mutant) cells, CellTiter-Glo, approximately 72 hours, read-out: T47D (H1047R mutant) Viability IC50

| SMILES | IC50 [1, 3] [nM] | IC50 [2, 4] [nM] | IC50 ([1]; read-out: SKBR3 (WT) Viability IC50 (nM)) [nM] | IC50 ([2]; read-out: T47D (H1047R mutant) Viability IC50 (nM)) [nM] |
| --- | --- | --- | --- | --- |
| C[C@@H](Nc1ccccc1C(=O)O)c1cc(Cl)cn2c(=O)c(C#N)c(N3CCC(F)(F)CC3)nc12 [Example 10-26, (R)-2-((1-(7-chloro-3-cyano-2-(4,4-difluoropiperidin-1-yl)-4-oxo-4H-pyrido[1,2-a]pyrimidin-9-yl)ethyl)amino)benzoic acid] | > 10000 | 50.5 | – | – |
| Cc1cc(C(C)Nc2ccccc2C(=O)O)c2nc(N3CCOCC3)cc(=O)n2c1 (stereo not shown) [Example 11-420, 2-((1-(7-methyl-2-morpholino-4-oxo-4H-pyrido[1,2-a]pyrimidin-9-yl)ethyl)amino)benzoic acid] | – | – | > 10000 | 1310 |
| Cc1cc([C@@H](C)Nc2ccc(Cl)nc2C(=O)O)c2nc(N3Cc4nccnc4C3)c(C)c(=O)n2c1 [Example 11-139, (R)-6-chloro-3-((1-(2-(5,7-dihydro-6H-pyrrolo[3,4-b]pyrazin-6-yl)-3,7-dimethyl-4-oxo-4H-pyrido[1,2-a]pyrimidin-9-yl)ethyl)amino)picolinic acid] | > 10000 | 272 | – | – |
| Cc1cc([C@@H](C)Nc2ccccc2C(=O)O)c2nc(N3CCC(C#N)CC3)c(C#N)c(=O)n2c1 [Example 11-72, (R)-2-((1-(3-cyano-2-(4-cyanopiperidin-1-yl)-7-methyl-4-oxo-4H-pyrido[1,2-a]pyrimidin-9-yl)ethyl)amino)benzoic acid] | > 10000 | 441 | – | – |
| Cc1cc([C@@H](C)Nc2ccccc2C(=O)O)c2nc(-c3cn(-c4ccc(C#N)cc4)cn3)c(C)c(=O)n2c1 [Example 11-236, (R)-2-((1-(2-(1-(4-cyanophenyl)-1H-imidazol-4-yl)-3,7-dimethyl-4-oxo-4H-pyrido[1,2-a]pyrimidin-9-yl)ethyl)amino)benzoic acid] | > 10000 | 679 | – | – |
| C[C@@H](Nc1ccc(Cl)nc1C(=O)O)c1cc(Cl)cn2c(=O)c(C#N)c(N3CCC(F)(F)CC3)nc12 [Example 11-50, (R)-6-chloro-3-((1-(7-chloro-3-cyano-2-(4,4-difluoropiperidin-1-yl)-4-oxo-4H-pyrido[1,2-a]pyrimidin-9-yl)ethyl)amino)picolinic acid] | > 10000 | 217 | – | – |
| Cc1cc([C@@H](C)Nc2cnc(Cl)nc2C(=O)O)c2nc(N3Cc4ccccc4C3)c(C#N)c(=O)n2c1 [Example 11-325, (R)-2-chloro-5-((1-(3-cyano-2-(isoindolin-2-yl)-7-methyl-4-oxo-4H-pyrido[1,2-a]pyrimidin-9-yl)ethyl)amino)pyrimidine-4-carboxylic acid] | > 10000 | 3080 | – | – |
| Cc1cc(C(C)Nc2cnc(Cl)cc2C(=O)O)c2nc(N3Cc4ccccc4C3)c(C)c(=O)n2c1 (stereo not shown) [Example 11-348, 2-chloro-5-((1-(2-(isoindolin-2-yl)-3,7-dimethyl-4-oxo-4H-pyrido[1,2-a]pyrimidin-9-yl)ethyl)amino)isonicotinic acid] | > 10000 | 5480 | – | – |
| Cc1cc([C@@H](C)Nc2ccccc2C(=O)O)c2nc(N3C4CNCC3C4)c(C)c(=O)n2c1 [Example 11-180, 2-(((1R)-1-(2-(3,6-diazabicyclo[3.1.1]heptan-6-yl)-3,7-dimethyl-4-oxo-4H-pyrido[1,2-a]pyrimidin-9-yl)ethyl)amino)benzoic acid] | > 10000 | > 10000 | – | – |
| Cc1cc([C@@H](C)Nc2ccccc2C(=O)O)c2nc(N3CCN(c4ccc(C(F)(F)F)cc4C#N)CC3C)c(C)c(=O)n2c1 (stereo partly drawn) [Example 11-81, 2-(((1R)-1-(2-(4-(2-cyano-4-(trifluoromethyl)phenyl)-2-methylpiperazin-1-yl)-3,7-dimethyl-4-oxo-4H-pyrido[1,2-a]pyrimidin-9-yl)ethyl)amino)benzoic acid] | > 10000 | 579 | – | – |
| Cc1cc(C(C)Nc2cccc(C(=O)O)c2)c2nc(N3CCCCC3)cc(=O)n2c1 (stereo not shown) [Example 11-389, 3-((1-(7-methyl-4-oxo-2-(piperidin-1-yl)-4H-pyrido[1,2-a]pyrimidin-9-yl)ethyl)amino)benzoic acid] | > 10000 | > 10000 | – | – |
| Cc1cc([C@@H](C)Nc2ccccc2C(=O)O)c2nc(N3CCC(n4ccc(C(F)(F)F)n4)CC3)c(C)c(=O)n2c1 [Example 10-104, (R)-2-((1-(3,7-dimethyl-4-oxo-2-(4-(3-(trifluoromethyl)-1H-pyrazol-1-yl)piperidin-1-yl)-4H-pyrido[1,2-a]pyrimidin-9-yl)ethyl)amino)benzoic acid] | > 10000 | 87.8 | – | – |

Second part, the molecule after the results:

| IC50 [1, 3] [nM] | IC50 [2, 4] [nM] | IC50 ([1]; read-out: SKBR3 (WT) Viability IC50 (nM)) [nM] | IC50 ([2]; read-out: T47D (H1047R mutant) Viability IC50 (nM)) [nM] | SMILES |
| --- | --- | --- | --- | --- |
| > 10000 | 304 | – | – | Cc1cc([C@@H](C)Nc2ccccc2C(=O)O)c2nc(N3CC4(C3)CC(F)(F)C4)c(C)c(=O)n2c1 [Example 11-202, (R)-2-((1-(2-(6,6-difluoro-2-azaspiro[3.3]heptan-2-yl)-3,7-dimethyl-4-oxo-4H-pyrido[1,2-a]pyrimidin-9-yl)ethyl)amino)benzoic acid] |
| > 10000 | 358 | – | – | Cc1cc([C@@H](C)Nc2ccc(Cl)cc2C(=O)O)c2nc(N3CCC(F)(F)CC3)c(C)c(=O)n2c1 [Example 11-91, (R)-5-chloro-2-((1-(2-(4,4-difluoropiperidin-1-yl)-3,7-dimethyl-4-oxo-4H-pyrido[1,2-a]pyrimidin-9-yl)ethyl)amino)benzoic acid] |
| > 10000 | 185 | – | – | Cc1cc([C@@H](C)Nc2ccccc2C(=O)O)c2nc(N3CC[C@H]3CF)c(C)c(=O)n2c1 [Example 11-94, 2-(((R)-1-(2-((S)-2-(fluoromethyl)azetidin-1-yl)-3,7-dimethyl-4-oxo-4H-pyrido[1,2-a]pyrimidin-9-yl)ethyl)amino)benzoic acid] |
| > 10000 | 132 | – | – | Cc1cc([C@@H](C)Nc2ccccc2C(=O)O)c2nc(N3C[C@H](C)C(F)(F)C3)c(C)c(=O)n2c1 [Example 11-119, 2-(((R)-1-(2-((S)-3,3-difluoro-4-methylpyrrolidin-1-yl)-3,7-dimethyl-4-oxo-4H-pyrido[1,2-a]pyrimidin-9-yl)ethyl)amino)benzoic acid] |
| > 10000 | 1820 | – | – | Cc1cc([C@H](C)Nc2ccccc2C(=O)O)c2nc(N3CCCCC3)c(C(F)(F)F)c(=O)n2c1 [Example 11-414, (S)-2-((1-(7-methyl-4-oxo-2-(piperidin-1-yl)-3-(trifluoromethyl)-4H-pyrido[1,2-a]pyrimidin-9-yl)ethyl)amino)benzoic acid] |
| > 10000 | 108 | – | – | Cc1cc([C@@H](C)Nc2ccccc2C(=O)O)c2nc(N3CC45COCC4(COC5)C3)c(C)c(=O)n2c1 (stereo partly drawn) [Example 10-148, 2-(((R)-1-(2-((3aS,6aS)-1H,3H,4H-3a,6a-(methanooxymethano)furo[3,4-c]pyrrol-5(6H)-yl)-3,7-dimethyl-4-oxo-4H-pyrido[1,2-a]pyrimidin-9-yl)ethyl)amino)benzoic acid] |
| > 10000 | 130 | – | – | Cc1cc([C@@H](C)Nc2ccccc2C(=O)O)c2nc(N3CC4(C3)CC4(F)F)c(C#N)c(=O)n2c1 [Example 11-102, (R)-2-((1-(3-cyano-2-(1,1-difluoro-5-azaspiro[2.3]hexan-5-yl)-7-methyl-4-oxo-4H-pyrido[1,2-a]pyrimidin-9-yl)ethyl)amino)benzoic acid] |
| > 10000 | 119 | – | – | Cc1cc([C@@H](C)Nc2ccccc2C(=O)O)c2nc(N3CCC(F)(F)C3)c(C)c(=O)n2c1 [Example 11-140, (R)-2-((1-(2-(3,3-difluoropyrrolidin-1-yl)-3,7-dimethyl-4-oxo-4H-pyrido[1,2-a]pyrimidin-9-yl)ethyl)amino)benzoic acid] |
